Data as given in publication PMC7785020, “A unique hormonal recognition feature of the human glucagon-like peptide-2 receptor” (Cell Research, 2020).
Positions count from the first letter of the chain named.

Legend:
[1] = biological target: T1, GLP-2R WT (1–553) (Homo sapiens, UniProt O95838); experiment: radioligand competition binding, WT; details: COS-7, WT (1–553); [^125I]GLP-2(1–33, M10Y) 10–15 pM, 4 h, 4 °C; mean ± SEM, n ≥ 3 in duplicate
T1 construct: WT (1–553); expressed in transfected cells; host or cells: COS-7
Method: (§1) A stepwise oxidation reaction was performed by addition of 6 aliquots of 5 µL ChloramineT (30 µL/mL) with a 1-min interval during constant stirring. The reaction was terminated by the addition of 400 µL phase A (0.1% trifluoracetic acid) before being fractionated into 1 mL volume by reverse-phase high-performance liquid chromatography (RP-HPLC, Waters 600 SimiPrep system) on a C18 column. The iodinated protein was […] by increasing concentrations of phase B (Acetonitrile + 0.1% TFA) and tested for competitive binding ability.
(§2) One day before transfection, the COS-7 cells were seeded in 75 cm^2 culture flasks (3 million cells/flask) in DMEM, containing 3.9 g/L NaHCO3 and supplemented with 10% FBS, 1% L-glutamine, 180 units/mL penicillin and 45 µg/mL streptomycin. After an overnight culture at 37 °C, 10% CO2 and 95% air humidity, the cells were transiently transfected with different GLP-2R constructs or pcDNA3.1 vector as previously described.[52] Following 24-h incubation, the cells were transferred to Costa® microtiter plates (150,000 cells/well, PerkinElmer) to achieve a 5%–10% specific binding. […] The cells were then washed twice in binding buffer (4 °C), lysed and counted for radioactivity using a Wallac Gamma Counter (PerkinElmer).

[2] = biological target: T2, GLP-2R K231^2.67A (Homo sapiens, UniProt O95838, K231A); experiment: radioligand competition binding, K231^2.67A; design: WT (1–553); expressed in transfected cells; details: COS-7, K231^2.67A; [^125I]GLP-2(1–33, M10Y) 10–15 pM, 4 h, 4 °C; n ≥ 3 in duplicate
T2 sequence (O95838 1-553 K231A): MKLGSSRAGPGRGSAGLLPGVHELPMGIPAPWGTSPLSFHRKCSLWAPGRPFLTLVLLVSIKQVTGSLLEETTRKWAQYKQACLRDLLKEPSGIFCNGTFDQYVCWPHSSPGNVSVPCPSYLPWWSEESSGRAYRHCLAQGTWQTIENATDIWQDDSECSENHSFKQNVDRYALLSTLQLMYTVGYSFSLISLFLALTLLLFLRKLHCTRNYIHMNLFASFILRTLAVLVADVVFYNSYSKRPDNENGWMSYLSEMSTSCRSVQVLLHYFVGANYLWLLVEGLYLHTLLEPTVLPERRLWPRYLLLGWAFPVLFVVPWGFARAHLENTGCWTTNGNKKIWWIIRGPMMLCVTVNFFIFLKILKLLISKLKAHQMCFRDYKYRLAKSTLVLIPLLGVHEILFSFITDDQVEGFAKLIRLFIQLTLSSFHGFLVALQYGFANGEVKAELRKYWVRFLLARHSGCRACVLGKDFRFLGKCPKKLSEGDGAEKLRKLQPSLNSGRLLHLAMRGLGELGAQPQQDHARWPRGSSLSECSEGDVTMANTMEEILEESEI
Method: as §1, §2

[3] = biological target: T3, GLP-2R R242^ECL1E (Homo sapiens, UniProt O95838, R242E); experiment: radioligand competition binding, R242^ECL1E; design: WT (1–553); expressed in transfected cells; details: COS-7, R242^ECL1E; [^125I]GLP-2(1–33, M10Y) 10–15 pM, 4 h, 4 °C; n ≥ 3 in duplicate
T3 sequence (O95838 1-553 R242E): T2 sequence (O95838 1-553 K231A) with A231K, R242E
Method: as §1, §2

[4] = biological target: T4, GLP-2R N334^ECL2A (Homo sapiens, UniProt O95838, N334A); experiment: radioligand competition binding, N334^ECL2A; design: WT (1–553); expressed in transfected cells; host or cells: COS-7; details: COS-7, N334^ECL2 A; [^125I]GLP-2(1–33, M10Y) 10–15 pM, 4 h, 4 °C; mean ± SEM, n ≥ 3 in duplicate
T4 sequence (O95838 1-553 N334A): T2 sequence (O95838 1-553 K231A) with A231K, N334A
Method: as §1, §2

T1 sequence (O95838 whole entry): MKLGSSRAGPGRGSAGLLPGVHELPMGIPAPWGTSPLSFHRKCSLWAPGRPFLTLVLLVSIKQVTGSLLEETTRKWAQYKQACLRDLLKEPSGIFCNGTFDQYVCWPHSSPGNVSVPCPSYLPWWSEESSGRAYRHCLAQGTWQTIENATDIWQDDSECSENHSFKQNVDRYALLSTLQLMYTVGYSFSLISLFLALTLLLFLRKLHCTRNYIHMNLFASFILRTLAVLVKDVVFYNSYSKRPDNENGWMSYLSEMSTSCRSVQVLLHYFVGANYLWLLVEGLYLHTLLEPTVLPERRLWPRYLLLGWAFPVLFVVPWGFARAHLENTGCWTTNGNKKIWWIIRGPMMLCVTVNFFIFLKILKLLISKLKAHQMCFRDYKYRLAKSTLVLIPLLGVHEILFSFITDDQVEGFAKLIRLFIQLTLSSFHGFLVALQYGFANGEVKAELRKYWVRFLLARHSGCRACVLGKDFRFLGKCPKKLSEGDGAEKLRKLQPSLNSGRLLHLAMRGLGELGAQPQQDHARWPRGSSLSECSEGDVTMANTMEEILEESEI

Structure (SMILES)	% Binding of WT [1] [%]	% Binding of WT [2]	% Binding of WT [3]	% Binding of WT [4] [%]
CC[C@H](C)[C@H](NC(=O)[C@H](Cc1ccccc1)NC(=O)[C@H](CC(=O)O)NC(=O)[C@H](CCCNC(=N)N)NC(=O)[C@H](C)NC(=O)[C@H](C)NC(=O)[C@H](CC(C)C)NC(=O)[C@H](CC(N)=O)NC(=O)[C@H](CC(=O)O)NC(=O)[C@H](CC(C)C)NC(=O)[C@@H](NC(=O)[C@@H](NC(=O)[C@H](CC(N)=O)NC(=O)[C@H](CCSC)NC(=O)[C@H](CCC(=O)O)NC(=O)[C@H](CC(=O)O)NC(=O)[C@H](CO)NC(=O)[C@H](Cc1ccccc1)NC(=O)[C@H](CO)NC(=O)CNC(=O)[C@H](CC(=O)O)NC(=O)[C@H](C)NC(=O)[C@@H](N)Cc1c[nH]cn1)[C@@H](C)O)[C@@H](C)CC)C(=O)N[C@@H](CC(N)=O)C(=O)N[C@@H](Cc1c[nH]c2ccccc12)C(=O)N[C@@H](CC(C)C)C(=O)N[C@H](C(=O)N[C@@H](CCC(N)=O)C(=O)N[C@H](C(=O)N[C@@H](CCCCN)C(=O)N[C@H](C(=O)N[C@H](C(=O)N[C@@H](CC(=O)O)C(=O)O)[C@@H](C)O)[C@@H](C)CC)[C@@H](C)O)[C@@H](C)CC [Human GLP-2 (1–33)]	99.2 ± 2.3	N.B.	N.B.	2.4 ± 1.3
CC[C@H](C)[C@H](NC(=O)[C@H](Cc1ccccc1)NC(=O)[C@H](CC(=O)O)NC(=O)[C@H](CCCNC(=N)N)NC(=O)[C@H](C)NC(=O)[C@H](C)NC(=O)[C@H](CC(C)C)NC(=O)[C@H](CC(N)=O)NC(=O)[C@H](CC(=O)O)NC(=O)[C@H](CC(C)C)NC(=O)[C@@H](NC(=O)[C@@H](NC(=O)[C@H](CC(N)=O)NC(=O)[C@H](CCSC)NC(=O)[C@H](CCC(=O)O)NC(=O)[C@H](CC(=O)O)NC(=O)[C@H](CO)NC(=O)[C@H](Cc1ccccc1)NC(=O)[C@H](CO)NC(=O)CNC(=O)[C@H](CC(=O)O)NC(=O)CNC(=O)[C@@H](N)Cc1c[nH]cn1)[C@@H](C)O)[C@@H](C)CC)C(=O)N[C@@H](CC(N)=O)C(=O)N[C@@H](Cc1c[nH]c2ccccc12)C(=O)N[C@@H](CC(C)C)C(=O)N[C@H](C(=O)N[C@@H](CCC(N)=O)C(=O)N[C@H](C(=O)N[C@@H](CCCCN)C(=O)N[C@H](C(=O)N[C@H](C(=O)N[C@@H](CC(=O)O)C(=O)O)[C@@H](C)O)[C@@H](C)CC)[C@@H](C)O)[C@@H](C)CC [Teduglutide]	99.7 ± 1.9	N.B.	N.B.	2.0 ± 2.1
